For 24 compounds, IC50 results are on record in patent US8853230B2, “Inhibitors of JAK” (Portola Pharmaceuticals, Inc., priority 2009, dated 2014).

Each structure is given as a SMILES string. Where only a bound is given, the exact number is not on record here.

Common to all, as to type: biochemical
For one assay, the target named is T1, TYK2 (Homo sapiens, UniProt P29597).
T1 construct: 5 μl of catalytic domain recombinant Kinase enzyme+Tyr peptide substrate (Invitrogen, Calif.); purchased Invitrogen
T1 sequence (P29597 897-1176 limits assumed): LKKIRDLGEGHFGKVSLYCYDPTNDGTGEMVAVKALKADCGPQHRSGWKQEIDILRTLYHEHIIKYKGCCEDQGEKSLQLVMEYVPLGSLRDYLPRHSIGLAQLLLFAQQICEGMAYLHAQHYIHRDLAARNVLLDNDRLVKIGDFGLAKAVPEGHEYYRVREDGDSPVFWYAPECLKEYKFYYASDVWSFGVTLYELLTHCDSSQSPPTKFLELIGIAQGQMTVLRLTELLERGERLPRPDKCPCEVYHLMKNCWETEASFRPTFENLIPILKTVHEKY
As to the kind of experiment: Z'-LYTE kinase assay, TYK2 tyrosine phosphorylation activity. The essentials: (§1)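 FRET-based Z′-LYTE format with recombinant catalytic-domain kinases and Tyr6 peptide substrate; compounds in 1% DMSO final, duplicate wells. Kinase reaction with ATP runs 1 h at room temperature, then protease development 1 h; fluorescence read at ex 400, em 445/520 nm. IC50 from 4-parameter logistic fit of percent phosphorylation versus uninhibited.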

The target of the next assay is T2, JAK1 (Homo sapiens, UniProt P23458).
T2 construct: 5 μl of catalytic domain recombinant Kinase enzyme+Tyr peptide substrate (Invitrogen, Calif.); purchased Invitrogen
As to the kind of experiment: Z'-LYTE kinase assay, JAK1 tyrosine phosphorylation activity. The following applies: read-out: JAK 1 IC50. The essentials: as §1

The next assay concerns the target T3, JAK2 (Homo sapiens, UniProt O60674).
T3 construct: 5 μl of catalytic domain recombinant Kinase enzyme+Tyr peptide substrate (Invitrogen, Calif.); purchased Invitrogen
As to the kind of experiment: Z'-LYTE kinase assay, JAK2 tyrosine phosphorylation activity. In outline: as §1

A further assay concerns the target T4, JAK3 (Homo sapiens, UniProt P52333).
T4 construct: 5 μl of catalytic domain recombinant Kinase enzyme+Tyr peptide substrate (Invitrogen, Calif.); purchased Invitrogen
In words: Z'-LYTE kinase assay, JAK3 tyrosine phosphorylation activity. The essentials: as §1

T2 sequence (P23458 875-1153 limits assumed): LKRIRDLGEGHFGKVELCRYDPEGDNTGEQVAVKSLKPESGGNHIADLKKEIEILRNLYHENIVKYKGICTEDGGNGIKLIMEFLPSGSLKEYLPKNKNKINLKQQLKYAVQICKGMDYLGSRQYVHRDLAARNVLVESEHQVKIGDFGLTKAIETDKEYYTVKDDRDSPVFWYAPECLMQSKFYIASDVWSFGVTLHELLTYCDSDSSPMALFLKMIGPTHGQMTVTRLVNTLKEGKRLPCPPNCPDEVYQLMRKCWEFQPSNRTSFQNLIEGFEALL
T3 sequence (O60674 849-1124 limits assumed): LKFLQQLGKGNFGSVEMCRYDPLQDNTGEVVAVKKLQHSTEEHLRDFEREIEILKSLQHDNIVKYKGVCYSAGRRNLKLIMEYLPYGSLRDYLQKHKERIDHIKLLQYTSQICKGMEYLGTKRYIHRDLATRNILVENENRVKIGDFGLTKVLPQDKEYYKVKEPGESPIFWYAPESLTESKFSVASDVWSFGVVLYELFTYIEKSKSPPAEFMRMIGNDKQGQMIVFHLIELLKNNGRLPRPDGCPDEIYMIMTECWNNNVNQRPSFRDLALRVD
T4 sequence (P52333 822-1111 limits assumed): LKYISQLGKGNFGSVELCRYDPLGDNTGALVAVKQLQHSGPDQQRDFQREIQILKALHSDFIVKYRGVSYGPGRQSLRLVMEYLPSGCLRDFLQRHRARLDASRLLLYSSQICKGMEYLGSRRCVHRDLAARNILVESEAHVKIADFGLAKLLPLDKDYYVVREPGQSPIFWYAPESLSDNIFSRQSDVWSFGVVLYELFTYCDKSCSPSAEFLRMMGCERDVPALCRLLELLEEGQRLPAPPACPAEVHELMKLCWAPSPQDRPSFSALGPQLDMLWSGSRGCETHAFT

For the compound `CC(=O)Nc1cccc(Nc2ncc(C(N)=O)c(N[C@@H](CO)c3ccccc3)n2)c1` [Example 98, (R)-2-(3-acetamidophenylamino)-4-(2-hydroxy-1-phenylethylamino)pyrimidine-5-carboxamide], the IC50 (usually the concentration at which inhibition is half-maximal) lay within 100 to 1000 nM at TYK2, 100 to 1000 nM at JAK1, 100 to 1000 nM against JAK2 and 10 to 100 nM on JAK3.

Take `C[C@@H](Nc1nc(Nc2ccc(Cl)c(NC(=O)NC3CCC3)c2)ncc1C(N)=O)c1ccccc1` [Example 111, (R)-2-(4-chloro-3-(3-cyclobutylureido)phenylamino)-4-(1-phenylethylamino)pyrimidine-5-carboxamide]: the IC50 was 100 to 1000 nM against TYK2, above 1000 nM at JAK1, above 1000 nM on JAK2 and 100 to 1000 nM against JAK3.

Consider `CC(=O)Nc1cccc(Nc2ncc(C(N)=O)c(N[C@@H]3CCc4ccccc43)n2)c1` [Example 97, (R)-2-(3-acetamidophenylamino)-4-(2,3-dihydro-1H-inden-1-ylamino)pyrimidine-5-carboxamide], for which the half-inhibitory concentration (IC50) at TYK2 fell in the range of 1 to 10 nM; on JAK1, 10 to 100 nM; against JAK2 it was 10 to 100 nM; against JAK3 it was 1 to 10 nM.

`CNC(=O)Nc1cc(Nc2ncc(C(N)=O)c(NC3CCCC3)n2)ccc1Cl` [Example 166, 2-(4-chloro-3-(3-methylureido)phenylamino)-4-(cyclopentylamino)pyrimidine-5-carboxamide]: the IC50 on TYK2, on JAK1, against JAK2 and against JAK3 was 10 to 100 nM in each case.

With `CC(=O)Nc1cccc(Nc2ncc(C(N)=O)c(NCC3CCC3)n2)c1` [Example 262, 2-(3-acetamidophenylamino)-4-(cyclobutylmethylamino)pyrimidine-5-carboxamide], the 50% inhibitory concentration (IC50) lay within 1 to 10 nM at TYK2, 10 to 100 nM on JAK1, 10 to 100 nM against JAK2 and 1 to 10 nM against JAK3.

Take `CC(=O)Nc1cccc(Nc2ncc(C(N)=O)c(N[C@H]3CCc4ccccc43)n2)c1` [Example 96, (S)-2-(3-acetamidophenylamino)-4-(2,3-dihydro-1H-inden-1-ylamino)pyrimidine-5-carboxamide]: the half-maximal inhibitory concentration (IC50) on TYK2, at JAK1, at JAK2 and on JAK3 was 10 to 100 nM throughout.

Take `CNC(=O)Nc1cc(Nc2ncc(C(N)=O)c(NCc3ccccc3)n2)ccc1F` [Example 158, 4-(benzylamino)-2-(4-fluoro-3-(3-methylureido)phenylamino)pyrimidine-5-carboxamide]: the IC50 at TYK2 is 10 to 100 nM; on JAK1, above 1000 nM; on JAK2, 10 to 100 nM; at JAK3, 1 to 10 nM.

Regarding `C[C@@H](Nc1nc(Nc2cccc(NC(=O)N3CCC(O)CC3)c2)ncc1C(N)=O)c1ccccc1` [Example 215], the IC50 at TYK2 was 10 to 100 nM; on JAK1, 10 to 100 nM; at JAK2, 10 to 100 nM; against JAK3, 1 to 10 nM.

`NC(=O)c1cnc(Nc2cccc(NC(=O)N3CCCC3)c2)nc1NCC(F)(F)F` [Example 136, 2-(3-(pyrrolidine-1-carboxamido)phenylamino)-4-(2,2,2-trifluoroethylamino)pyrimidine-5-carboxamide]: the IC50 against TYK2, at JAK1, on JAK2 and at JAK3 was 10 to 100 nM throughout.

Take `CC(=O)Nc1cccc(Nc2cc(NCC(C)C)c(C(N)=O)cn2)c1` [Example 323, 6-(3-acetamidophenylamino)-4-(isobutylamino)nicotinamide]: the IC50 at TYK2 fell in the range of 10 to 100 nM; on JAK1 it was 100 to 1000 nM; on JAK2 it was 100 to 1000 nM; against JAK3 it was 10 to 100 nM.

Take `CC(=O)N(c1cccc(Nc2ncc(C(N)=O)c(N[C@H](C)c3ccccc3)n2)c1)C1CC1` [Example 161, (R)-2-(3-(N-cyclopropylacetamido)phenylamino)-4-(1-phenylethylamino)pyrimidine-5-carboxamide]: the IC50 on TYK2 was 100 to 1000 nM; at JAK1 it was 100 to 1000 nM; against JAK2, 10 to 100 nM; at JAK3, 1 to 10 nM.

`CN1CCN(C(=O)Nc2cccc(Nc3ncc(C(N)=O)c(NCc4cccc(F)c4)n3)c2)CC1` [Example 258, 4-(3-fluorobenzylamino)-2-(3-(4-methylpiperazine-1-carboxamido)phenylamino)pyrimidine-5-carboxamide]: the IC50 is 1 to 10 nM on TYK2, 10 to 100 nM on JAK1, 1 to 10 nM at JAK2 and below 1 nM against JAK3.

`CC(=O)Nc1cccc(Nc2ncc(C(N)=O)c(Nc3cccc4c3cnn4C)n2)c1` [Example 191, 2-(3-acetamidophenylamino)-4-(1-methyl-1H-indazol-4-ylamino)pyrimidine-5-carboxamide]: the IC50 at TYK2 was 10 to 100 nM; on JAK1, 10 to 100 nM; at JAK2, 10 to 100 nM; at JAK3, 1 to 10 nM.

Regarding `COCC(=O)Nc1cccc(Nc2ncc(C(N)=O)c(NCC3CC3)n2)c1` [Example 124, 4-(cyclopropylmethylamino)-2-(3-(2-methoxyacetamido)phenylamino)pyrimidine-5-carboxamide], the half-maximal inhibitory concentration (IC50) on TYK2 lay within 1 to 10 nM; at JAK1 it was 10 to 100 nM; against JAK2, 10 to 100 nM; on JAK3, 1 to 10 nM.

With `CCn1ccc2c(Nc3nc(Nc4cccc(NC(C)=O)c4)ncc3C(N)=O)cccc21` [Example 185, 2-(3-acetamidophenylamino)-4-(1-ethyl-1H-indol-4-ylamino)pyrimidine-5-carboxamide], the IC50 on TYK2 lay within 1 to 10 nM; on JAK1, 10 to 100 nM; against JAK2, 10 to 100 nM; against JAK3 it was 1 to 10 nM.

For `CC(=O)Nc1cccc(Nc2ncc(C(N)=O)c(NCC3CCCNC3)n2)c1` (stereo not drawn) [Example 116, 2-(3-acetamidophenylamino)-4-(piperidin-3-ylmethylamino)pyrimidine-5-carboxamide], the IC50 against TYK2, on JAK1, against JAK2 and against JAK3 was 10 to 100 nM in each case.

As for `C[C@@H](Nc1nc(Nc2ccc(Cl)c(NC(=O)N3CCOCC3)c2)ncc1C(N)=O)c1ccccc1` [Example 183, (R)—N-(5-(5-carbamoyl-4-(1-phenylethylamino)pyrimidin-2-ylamino)-2-chlorophenyl)morpholine-4-carboxamide], the IC50 against TYK2 was in the range of 10 to 100 nM; at JAK1 it was 100 to 1000 nM; against JAK2, 10 to 100 nM; against JAK3, 1 to 10 nM.

Consider `C[C@@H](Nc1nc(Nc2cccc(N(C)C(=O)N3CCCC3)c2)ncc1C(N)=O)c1ccccc1` [Example 122, (R)-2-(3-(N-methylpyrrolidine-1-carboxamido)phenylamino)-4-(1-phenylethylamino)pyrimidine-5-carboxamide], for which the IC50 against TYK2 was 100 to 1000 nM; on JAK1, 100 to 1000 nM; against JAK2, 10 to 100 nM; against JAK3, 1 to 10 nM.

As to `CC(=O)Nc1cccc(Nc2cc(NCc3cccc(F)c3F)c(C(N)=O)cn2)c1` [Example 336, 6-(3-acetamidophenylamino)-4-(2,3-difluorobenzylamino)nicotinamide], the IC50 against TYK2 was in the range of 100 to 1000 nM; at JAK1, 100 to 1000 nM; on JAK2 it was 100 to 1000 nM; on JAK3, 1 to 10 nM.

On to `COCC(=O)N(c1cccc(Nc2ncc(C(N)=O)c(N[C@H](C)c3ccccc3)n2)c1)C1CC1` [Example 162, (R)-2-(3-(N-cyclopropyl-2-methoxyacetamido)phenylamino)-4-(1-phenylethylamino)pyrimidine-5-carboxamide], for which the concentration for half-maximal inhibition (IC50) was 10 to 100 nM against TYK2, 10 to 100 nM at JAK1, 10 to 100 nM against JAK2 and 1 to 10 nM against JAK3.

As for `CC(=O)Nc1cccc(Nc2ncc(C(N)=O)c(N[C@H](C)C(N)=O)n2)c1` [Example 91, (R)-2-(3-acetamidophenylamino)-4-(1-amino-1-oxopropan-2-ylamino)pyrimidine-5-carboxamide], the IC50 at TYK2, at JAK1, on JAK2 and against JAK3 was 10 to 100 nM in each case.

`NC(=O)c1cnc(Nc2ccc(N3CCCC3)c(NC(=O)N3CCCC3)c2)nc1NCc1ccccc1` [Example 159, 4-(benzylamino)-2-(4-(pyrrolidin-1-yl)-3-(pyrrolidine-1-carboxamido)phenylamino)pyrimidine-5-carboxamide]: the IC50 at TYK2 lay within 10 to 100 nM; on JAK1, 100 to 1000 nM; against JAK2 it was 10 to 100 nM; at JAK3 it was 1 to 10 nM.

`CC(=O)Nc1cc(Nc2ncc(C(N)=O)c(Nc3cccc4c3cnn4C)n2)ccc1OCCN1CCCC1` [Example 256, 2-(3-acetamido-4-(2-(pyrrolidin-1-yl)ethoxy)phenylamino)-4-(1-methyl-1H-indazol-4-ylamino)pyrimidine-5-carboxamide]: the IC50 at TYK2 fell in the range of 10 to 100 nM; on JAK1, 10 to 100 nM; against JAK2 it was 1 to 10 nM; against JAK3 it was 1 to 10 nM.

For the compound `CC(=O)Nc1cccc(Nc2ncc(C(N)=O)c(Nc3ccc(N4CCOCC4)c(F)c3)n2)c1` [Example 198], the IC50 is 10 to 100 nM on TYK2, above 1000 nM at JAK1, 10 to 100 nM at JAK2 and 10 to 100 nM on JAK3.
